Measurements reported in patent US20230085307A1, “PYRIDAZINONE COMPOUND AND HERBICIDE” (NISSAN CHEMICAL CORPORATION, priority 2019, published 2023).

Legend:
southern crabgrass = test: Test Example 5: herbicidal effect by foliage application, plastic box (Table 20, symbol F); format: in vivo, southern crabgrass (Digitaria ciliaris); settings: 320 g/ha, evaluated three weeks after application
Outline: (§1)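 Sow seeds spot-wise in sterilized diluvial soil; cover with ~1.5 cm soil. Grow 14 days in greenhouse, 25° C. to 30° C. Spray foliage with emulsion diluted to predetermined amount. Rate effect after 3 weeks.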

windgrass = test: Test Example 5: herbicidal effect by foliage application, plastic box (Table 20, symbol L); format: in vivo, windgrass (Apera spica-venti); settings: 320 g/ha, evaluated three weeks after application
Outline: as §1

green foxtail = test: Test Example 5: herbicidal effect by foliage application, plastic box (Table 20, symbol G); format: in vivo, green foxtail (Setaria viridis); settings: 320 g/ha, evaluated three weeks after application
Outline: as §1

Italian ryegrass = test: Test Example 5: herbicidal effect by foliage application, plastic box (Table 20, symbol K); format: in vivo, Italian ryegrass (Lolium multiflorum); settings: 320 g/ha, evaluated three weeks after application
Outline: as §1

lambsquarters = test: Test Example 5: herbicidal effect by foliage application, plastic box (Table 20, symbol O); format: in vivo, lambsquarters (Chenopodium album); settings: 320 g/ha, evaluated three weeks after application
Outline: as §1

rice flat sedge = test: Test Example 3: herbicidal effect by foliage application, Wagner pot (Table 18, symbol E); format: in vivo, rice flat sedge (Cyperus iria)
Outline: (§2)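 Plants were sown in alluvial soil held under 0.1–0.5 cm standing water and grown 14 days in a greenhouse at 25–30 °C. An emulsifiable formulation, water-diluted to the set dose, was then sprayed onto the foliage, and effects were scored three weeks later using previously defined criteria.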

barnyard grass [1] = test: Test Example 5: herbicidal effect by foliage application, plastic box (Table 20, symbol H); format: in vivo, barnyard grass (Echinochloa crus-galli); settings: 320 g/ha, evaluated three weeks after application
Outline: as §1

blackgrass = test: Test Example 5: herbicidal effect by foliage application, plastic box (Table 20, symbol J); format: in vivo, blackgrass (Alopecurus myosuroides); settings: 320 g/ha, evaluated three weeks after application
Outline: as §1

velvetleaf = test: Test Example 5: herbicidal effect by foliage application, plastic box (Table 20, symbol M); format: in vivo, velvetleaf (Abutilon theophrasti); settings: 320 g/ha, evaluated three weeks after application
Outline: as §1

false cleavers = test: Test Example 5: herbicidal effect by foliage application, plastic box (Table 20, symbol Q); format: in vivo, false cleavers (Galium spurium); settings: 320 g/ha, evaluated three weeks after application
Outline: as §1

persian speedwell = test: Test Example 5: herbicidal effect by foliage application, plastic box (Table 20, symbol R); format: in vivo, Persian speedwell (Veronica persica); settings: 320 g/ha, evaluated three weeks after application
Outline: as §1

Chinese sprangletop = test: Test Example 3: herbicidal effect by foliage application, Wagner pot (Table 18, symbol D); format: in vivo, chinese sprangletop (Leptochloa chinensis)
Outline: as §2

chickweed = test: Test Example 5: herbicidal effect by foliage application, plastic box (Table 20, symbol P); format: in vivo, common chickweed (Stellaria media); settings: 320 g/ha, evaluated three weeks after application
Outline: as §1

redroot pigweed = test: Test Example 5: herbicidal effect by foliage application, plastic box (Table 20, symbol N); format: in vivo, redroot pigweed (Amaranthus retroflexus); settings: 320 g/ha, evaluated three weeks after application
Outline: as §1

wild oat = test: Test Example 5: herbicidal effect by foliage application, plastic box (Table 20, symbol I); format: in vivo, wild oat (Avena fatua); settings: 320 g/ha, evaluated three weeks after application
Outline: as §1

barnyard grass [2] = test: Test Example 3: herbicidal effect by foliage application, Wagner pot (Table 18, symbol H); format: in vivo, barnyard grass (Echinochloa crus-galli)
Outline: as §2

[3] = amount of applied herbicide 320 g/ha
[4] = foliage application after 14-day growth

SMILES: CCCC(=O)Oc1c(C)nn(C)c(=O)c1-c1c(-c2ccc3c(c2)OCCO3)sc2ccc(C)cc12 [2-159]
- herbicidal effect on F: southern crabgrass (criteria 0-5) (southern crabgrass; foliage application): 0 (Herbicidal rate of 5% or less (almost no effect))
- herbicidal effect on L: windgrass (criteria 0-5) (windgrass; foliage application): 0 (Herbicidal rate of 5% or less (almost no effect))
- herbicidal effect on G: green foxtail (criteria 0-5) (green foxtail; foliage application): 0 (Herbicidal rate of 5% or less (almost no effect))
- herbicidal effect on K: Italian ryegrass (criteria 0-5) (Italian ryegrass; foliage application): 0 (Herbicidal rate of 5% or less (almost no effect))
- herbicidal effect on O: lambsquarters (criteria 0-5) (lambsquarters; foliage application): 0 (Herbicidal rate of 5% or less (almost no effect))
- herbicidal effect on E: rice flat sedge (rice flat sedge; [3]): 3 (Herbicidal rate of 40% or more and less than 70%)
- herbicidal effect on H: barnyard grass (criteria 0-5) (barnyard grass [1]; foliage application): 0 (Herbicidal rate of 5% or less (almost no effect))
- herbicidal effect on J: blackgrass (criteria 0-5) (blackgrass; foliage application): 0 (Herbicidal rate of 5% or less (almost no effect))
- herbicidal effect on M: velvetleaf (criteria 0-5) (velvetleaf; foliage application): 2 (Herbicidal rate of 20% or more and less than 40%)
- herbicidal effect on Q: false cleavers (criteria 0-5) (false cleavers; foliage application): 0 (Herbicidal rate of 5% or less (almost no effect))
- herbicidal effect on R: persian speedwell (criteria 0-5) (persian speedwell; foliage application): 4 (Herbicidal rate of 70% or more and less than 90%)
- herbicidal effect on D: Chinese sprangletop (Chinese sprangletop; [3]): 0 (Herbicidal rate of 5% or less (almost no effect))
- herbicidal effect on P: chickweed (criteria 0-5) (chickweed; foliage application): 4 (Herbicidal rate of 70% or more and less than 90%)
- herbicidal effect on N: redroot pigweed (criteria 0-5) (redroot pigweed; foliage application): 5 (Herbicidal rate of 90% or more (almost completely withered))
- herbicidal effect on I: wild oat (criteria 0-5) (wild oat; foliage application): 0 (Herbicidal rate of 5% or less (almost no effect))
- herbicidal effect on H: barnyard grass (barnyard grass [2]; [3]): 0 (Herbicidal rate of 5% or less (almost no effect))

SMILES: CCCC(=O)Oc1c(C)nn(C)c(=O)c1-c1c(-c2ccc(C(F)(F)F)cc2)sc2cc(Cl)ccc12 [3-146]
- herbicidal effect on F: southern crabgrass (evaluation grade 0-5) (southern crabgrass; [4]): 1 (Herbicidal rate of 5% or more and less than 20%)
- herbicidal effect on L: windgrass (evaluation grade 0-5) (windgrass; [4]): 0 (Herbicidal rate of 5% or less (almost no effect))
- herbicidal effect on G: green foxtail (evaluation grade 0-5) (green foxtail; [4]): 2 (Herbicidal rate of 20% or more and less than 40%)
- herbicidal effect on K: Italian ryegrass (evaluation grade 0-5) (Italian ryegrass; [4]): 0 (Herbicidal rate of 5% or less (almost no effect))
- herbicidal effect on O: lambsquarters (evaluation grade 0-5) (lambsquarters; [4]): 3 (Herbicidal rate of 40% or more and less than 70%)
- herbicidal effect on rice flat sedge (E) (rice flat sedge; 320 g/ha): 3 (Herbicidal rate of 40% or more and less than 70%)
- herbicidal effect on H: barnyard grass (evaluation grade 0-5) (barnyard grass [1]; [4]): 0 (Herbicidal rate of 5% or less (almost no effect))
- herbicidal effect on J: blackgrass (evaluation grade 0-5) (blackgrass; [4]): 0 (Herbicidal rate of 5% or less (almost no effect))
- herbicidal effect on M: velvetleaf (evaluation grade 0-5) (velvetleaf; [4]): 0 (Herbicidal rate of 5% or less (almost no effect))
- herbicidal effect on Q: false cleavers (evaluation grade 0-5) (false cleavers; [4]): 1 (Herbicidal rate of 5% or more and less than 20%)
- herbicidal effect on R: persian speedwell (evaluation grade 0-5) (persian speedwell; [4]): 4 (Herbicidal rate of 70% or more and less than 90%)
- herbicidal effect on Chinese sprangletop (D) (Chinese sprangletop; 320 g/ha): 3 (Herbicidal rate of 40% or more and less than 70%)
- herbicidal effect on P: chickweed (evaluation grade 0-5) (chickweed; [4]): 5 (Herbicidal rate of 90% or more (almost completely withered))
- herbicidal effect on N: redroot pigweed (evaluation grade 0-5) (redroot pigweed; [4]): 3 (Herbicidal rate of 40% or more and less than 70%)
- herbicidal effect on I: wild oat (evaluation grade 0-5) (wild oat; [4]): 0 (Herbicidal rate of 5% or less (almost no effect))
- herbicidal effect on barnyard grass (H) (barnyard grass [2]; 320 g/ha): 3 (Herbicidal rate of 40% or more and less than 70%)
